Source: patent US8334110B2, “Detection of blood plasma amygdalin of dissipating blood stasis botanical” (Shanghai Sundise Chinese Medicine Technology Development …, priority 2007, dated 2012)

Experiment: UPLC/MS determination of blood plasma Amygdalin after administration of the body resistance-strengthening and blood stasis-dissipating botanical composition
Assay type: in vivo
Conditions: blood plasma of mammals after drenched with body resistance-strengthening and blood stasis-dissipating (Fuzheng Huayu, FZHY) botanical composition; UPLC-MS, FIG. 1 (plasma taken 0.5 hours after administration)
Source text: a. After the administration of the body resistance-strengthening and blood stasis-dissipating botanical composition to mammals, first add 2-5 mol/L phosphoric acid to the composition-containing mammalian blood plasma and mix to homogenize, the volumetric ratio of the blood plasma to phosphoric acid is 1:2-3, feed the same to a Waters Oasis HLB cartridge that has been activated by methanol and water, leach with water and 80-100% methanol and elute with 0.2-1% ammonia methanol, then dry through evaporation and enrich the eluent at 25-30° C., and re-dissolve the eluent with a mobile phase;
Chromatographic conditions: chromatographic column: Acquity UPLC BEH C18, 2.1×100 mm, mobile phase A: Water-Acetonitrile-Formic acid 95:5:0.1 v/v/v, mobile phase B: Acetomtrile-Formic acid 100:0.1 v/v; MS conditions: electrospray ionization (ESI) ion source, detection in the positive ion mode, and the mass scanning range m/z 150˜800.
The ESI ion source in said Step (2) employs detection in the positive ion mode; the desolvation gas flow rate is 440 L/h, the desolvation gas temperature is 300° C., the cone gas flow rate is 50 L/h, the ion source temperature is 100° C., the spray capillary voltage is 3800 V, the sampling cone voltage is 30 V, the extracting cone voltage is 2.00 V, and the lens voltage is 0.1 V. The mass scanning range is m/z 150˜800.
1. […]

## N#C[C@H](O[C@@H]1O[C@H](CO[C@@H]2O[C@H](CO)[C@@H](O)[C@H](O)[C@H]2O)[C@@H](O)[C@H](O)[C@H]1O)c1ccccc1 [Amygdalin]
  Detection of Amygdalin in blood plasma: can be detected
